Experimental data taken from article PMC7055300, “Theileria parasites subvert E2F signaling to stimulate leukocyte proliferation” (Scientific Reports, 2020).
Entries after “also recorded” stand apart in the source; their conditions may differ.

Assays:
[1] = test system: T. annulata-infected TBL20 cells; assay: Cell proliferation, T. annulata-infected B cells (TBL20), hemacytometer count; format: cell-based, bovine; details: T. annulata-infected TBL20, HLM006474 10 μM in DMSO, average of 3 independent experiments
Procedure: (§1) (a) TpMD409B.2 cells were transfected with E2F-luc (WT = wild-type E2F binding construct), or mutated E2F-luc constructs (labeled ‘mutated’) together with a CMV-lacZ plasmid to normalize for transfection efficiency. Luciferase and β-galactosidase activities were measured 24 hrs after transfection. E2F-luc relative luciferase activity normalized to mE2F-luc. Shown is the average of 3 independent experiments with standard deviation. BL20 or TBL20 cells were treated with (b) 1μM of penetrating peptides ([…]-K(FITC)) containing the TpGcpE LXCXE motif, or an LXNXE control ([…]-K(FITC)) or (c) E2F inhibitor or DMSO control, and then counted by hemacytometer after the indicated timepoints. Shown is the average of 3 independent experiments with standard deviation. Then, either (d) virulent Ode T. annulata-transformed macrophages, or (e) BL20/TBL20 T. annulata-transformed cells were transfected with E2F-luc plasmid (or mutated E2F-luc as in (c)) and incubated for 24 hrs at 37 °C. Then, cells were treated with penetrating peptides as in (b) for 2 hrs and luciferase activity was quantified. Data shown are representative of three independent experiments done with biological duplicates, with mean + standard deviation (*P-value < 0.05 compared to untreated; ^‡P-value < 0.05 compared to its respective BL20 control).
The TpMD409.B2 cell line is a T. parva Muguga-infected B-cell clone (B2) whose establishment, phenotypic characteristics and culture conditions have been described[25]–[27]. BL20 cells are a retrovirus-transformed B cell line isolated from an infected cow. To eliminate the parasite, cells were treated for the indicated time with buparvaquone (50 ng/ml, 1 mg/ml stock in ethanol; Sigma). To inhibit E2F activity, cells were treated for the indicated time with HLM006474 (10 μM in DMSO, Sigma), or DMSO (10μM; Sigma) as a control. The T. annulata-infected cell lines BL20 (B cell), as well as Ode (macrophage) cell lines are well described and characterized.
The amino acid sequence of RB-1 based on the parasite sequence ([…]) was synthesized. Cysteine in wild type RB1 was replaced by an Asparagine (N; in bold […]). The penetrating peptide to facilitate cell entry is underlined.

uninfected BL20 cells = assay: Cell proliferation, uninfected B cells (BL20), hemacytometer count; format: cell-based, bovine; details: uninfected BL20, HLM006474 10 μM in DMSO, average of 3 independent experiments
Procedure: as §1, with “control). […]” for “control).”

BL20/TBL20 cells = format: cell-based, bovine; details: HLM006474 10 μM; data not shown
Procedure: Since the LXCXE peptide can induce E2F activity, we investigated whether it could, on its own, increase bovine leukocyte proliferation. To extend our observations to T. annulata-infected leukocytes, we incubated T. annulata-infected B cells with WT or mutated LXNXE peptides and counted cell numbers at 24 h and 48 h.
The amino acid sequence of RB-1 based on the parasite sequence ([…]) was synthesized. Cysteine in wild type RB1 was replaced by an Asparagine (N; in bold […]). The penetrating peptide to facilitate cell entry is underlined. 3 different concentrations of peptides were used for 2 h to determine the minimum effective concentration (1 μM) with minimum toxic effect, which was used to perform each experiment as indicated.

[2] = test system: T. parva-transformed TpMD409.B2 cells; assay: Western blot of RB/E2F pathway proteins after parasite killing; format: cell-based, bovine; details: buparvaquone 50 ng/ml
Source text: The discovery of these peptides led us to investigate the particular RB/E2F signaling components in Theileria-infected cells. Eight E2F transcription factor genes have been identified in mammals, which can be divided into two groups: activators (E2F-1, E2F-2, E2F-3a), which can bind RB, and repressors (e.g. E2F-3b, E2F-4, E2F-5), which can bind RB, p107 and p130. The balance between the activator and repressor E2Fs seems to be primarily controlled by the phosphorylation status of the associated pocket proteins to which they bind. E2F interactions with the Dimerization Partner (DP) ligands are also important for regulating E2F transcription factor activity. We used Western blot to compare the levels of RB family, E2F, and DP-1 protein between T. parva-transformed cells that were left untreated with those treated with buparvaquone to kill the parasite and induce an arrest in host cell proliferation. By comparing expression levels between the buparvaquone-treated and untreated groups, we can determine parasite-dependent changes in the expression levels of these proteins. […] These faster migrating bands likely correspond to hypophosphorylated, proliferation-suppressive forms of RB and p130, at 24 h and 48 h after treatment with buparvaquone.
Figure 2 RB/E2F signaling is activated by Theileria parasites. (a) Western blot analysis (left) of E2F-1, E2F-3 E2F-4, DP-1, pRB, and p130 expression in TpMD409B.2 cells, either left untreated (−), or treated (+) for 24 h and 48 h with buparvaquone (BQ), including band intensity quantification (right). Shown are representatives of three independent experiments. (b) E2F DNA binding activity in TpMD409B.2 cells was assayed by EMSA using gP32- labeled double-stranded oligonucleotide spanning E2F binding sites from the dhfr gene promoter. Left panel, nuclear extracts from TpMD409B.2 cells were incubated with γP32-labeled probe in absence or presence of a 100 fold molar excess of unlabeled wild type (WT), or mutated (MUT) double-stranded oligonucleotide. Binding reactions were resolved by non-denaturing polyacrylamide gel, which was processed afterwards for autoradiography. Right panel, EMSA analysis of E2F DNA binding activity in nuclear extracts from untreated, proliferating TpMD409B.2 cells (−) and TpMD409B.2 cells treated for 24 and 48 h with the parasiticidal drug buparvaquone (+). Arrows indicate E2F in complex with RB family proteins (Complexes) or free E2F protein (Free). (c) Flow cytometric analysis of BrdU incorporation and DNA content in TpMD409B.2 cells, either left untreated (control), or treated with buparvaquone for 24 h and 48 h. Shown is a representative of three independent experiments. […]

[3] = test system: E2F binding sites from the dhfr gene promoter; TpMD409.B2 nuclear extracts; assay: E2F DNA binding activity by EMSA; format: cell-based, bovine; details: buparvaquone 50 ng/ml, 24 h and 48 h
Procedure: (a) Western blot analysis (left) of E2F-1, E2F-3 E2F-4, DP-1, pRB, and p130 expression in TpMD409B.2 cells, either left untreated (−), or treated (+) for 24 h and 48 h with buparvaquone (BQ), including band intensity quantification (right). Shown are representatives of three independent experiments. (b) E2F DNA binding activity in TpMD409B.2 cells was assayed by EMSA using gP32- labeled double-stranded oligonucleotide spanning E2F binding sites from the dhfr gene promoter. Left panel, nuclear extracts from TpMD409B.2 cells were incubated with γP32-labeled probe in absence or presence of a 100 fold molar excess of unlabeled wild type (WT), or mutated (MUT) double-stranded oligonucleotide. Binding reactions were resolved by non-denaturing polyacrylamide gel, which was processed afterwards for autoradiography. […]

[4] = test system: T. parva-transformed TpMD409.B2 cells; assay: Flow cytometric BrdU incorporation; format: cell-based, bovine; details: untreated vs buparvaquone-treated, 24 h and 48 h
Source text: The discovery of these peptides led us to investigate the particular RB/E2F signaling components in Theileria-infected cells. Eight E2F transcription factor genes have been identified in mammals, which can be divided into two groups: activators (E2F-1, E2F-2, E2F-3a), which can bind RB, and repressors (e.g. E2F-3b, E2F-4, E2F-5), which can bind RB, p107 and p130. The balance between the activator and repressor E2Fs seems to be primarily controlled by the phosphorylation status of the associated pocket proteins to which they bind. E2F interactions with the Dimerization Partner (DP) ligands are also important for regulating E2F transcription factor activity. We used Western blot to compare the levels of RB family, E2F, and DP-1 protein between T. parva-transformed cells that were left untreated with those treated with buparvaquone to kill the parasite and induce an arrest in host cell proliferation. By comparing expression levels between the buparvaquone-treated and untreated groups, we can determine parasite-dependent changes in the expression levels of these proteins. […]
Figure 2 RB/E2F signaling is activated by Theileria parasites. (a) Western blot analysis (left) of E2F-1, E2F-3 E2F-4, DP-1, pRB, and p130 expression in TpMD409B.2 cells, either left untreated (−), or treated (+) for 24 h and 48 h with buparvaquone (BQ), including band intensity quantification (right). […]

[5] = target: T1, Retinoblastoma-1 (RB) pocket domain (Homo sapiens, UniProt P06400); assay: Surface plasmon resonance binding to RB pocket domain; details: SPR, RB pocket domain on sensor chip; sequence-scrambled peptides as negative controls
T1 construct: Recombinant, purified RB pocket domain was coupled to the surface of the sensor chip; purchased LDBiopharma HTF-1035
T1 sequence (P06400 373-771 limits assumed): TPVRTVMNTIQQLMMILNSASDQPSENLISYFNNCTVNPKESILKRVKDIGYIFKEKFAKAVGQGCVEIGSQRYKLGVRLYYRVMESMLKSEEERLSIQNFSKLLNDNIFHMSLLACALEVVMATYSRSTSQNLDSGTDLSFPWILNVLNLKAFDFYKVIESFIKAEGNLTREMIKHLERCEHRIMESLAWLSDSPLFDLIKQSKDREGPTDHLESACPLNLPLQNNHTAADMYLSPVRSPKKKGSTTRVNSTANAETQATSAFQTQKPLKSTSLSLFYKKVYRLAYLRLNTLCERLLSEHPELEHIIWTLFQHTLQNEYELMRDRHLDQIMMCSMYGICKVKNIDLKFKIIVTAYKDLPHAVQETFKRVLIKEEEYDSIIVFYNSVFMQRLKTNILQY
Source text: Since the proliferation of T. parva-infected host cells is thought to be critical for the pathogenesis of infection, we investigated whether synthesized peptides, each 9 to 19 amino acids long and containing these 15 T. parva motifs, could bind to RB (Supplementary Table 1). Surface plasmon resonance (SPR) was used to screen these peptides for specific RB1 pocket domain-binding activity. Recombinant, purified RB pocket domain was coupled to the surface of the sensor chip, and purified peptides were introduced at various concentrations to quantify kinetics if response curves indicated a detectable protein-protein interaction. Sequence-scrambled peptides were used as negative controls to exclude false-positive signals.
Immobilization of human RB1 protein to CM5 chip
Surface preparation. […]
Kinetics analysis of binding. […] The analytes (60 µl each, 0–25 µM in HBS-EP buffer with 0.05% P20) were injected into flow cell and the association of analyte and ligand were recorded respectively by surface plasmon resonance (SPR) with a Biacore T200 (Biacore, Inc., New Jersey). […]
Data analysis. Sensorgrams of the interaction generated by the instrument were analyzed using the software BIAeval 3.2 (Biacore Inc., New Jersey). […]

## CCOc1ccc(C(Nc2ccccn2)c2ccc3ccc(C)nc3c2O)cc1C (stereo not shown) [HLM006474, reference compound]
[1]
  proliferation with E2F inhibitor: specifically reduced the proliferation of T. annulata-infected TBL20 cells
[1]; listed as HLM0006474
  proliferation with E2F inhibitor: specifically inhibit the proliferation of T. annulata-infected
Uninfected BL20 cells
  proliferation with E2F inhibitor: not uninfected BL20 cells
Uninfected BL20 cells; listed as HLM0006474
  proliferation with E2F inhibitor: not uninfected bovine B cell lines
BL20/TBL20 cells
  dependence of the effect on cell death: not dependent on cell death

## CC(C)(C)[C@H]1CC[C@H](CC2=C(O)C(=O)c3ccccc3C2=O)CC1 [buparvaquone]
[2]; 24 h and 48 h, vs untreated
  pRB and p130 migration: migrate faster in parasite-killed TpMD409.B2 cells than in untreated cells
[2]; 48 h
  E2F-4 protein levels: E2F-4 levels remain unaltered
  slower-migrating DP-1 band: a slower-migrating DP-1 band increases
[2]; after 48 h but not 24 h
  E2F-1 and E2F-3 protein levels: E2F-1 and E2F-3 protein levels decrease
[3]
  E2F DNA binding activity: overall decrease in E2F DNA binding activity
  slow and intermediate complexes bound to E2F-dependent promoter: increase in complexes migrating at slow and intermediate speed bound to an E2F-dependent promoter
[4]
  proliferation, dependence on the parasite: Proliferation was also confirmed to be dependent on the parasite

## RDELQGVIQLLYDRYNKYI [TpMuguga_02g02355, SPR screening peptide […] with an LXXLFD motif from TpMuguga_02g02355]
[5]
  RB binding in words: bound the RB pocket domain with nanomolar affinity; also recorded: bind RB in a sequence-specific fashion
